Assays:
H460 cells = experiment: BrdU pulse labeling and flow cytometry of H460 cells; assay type: cell-based, human
Experimental: FIGS. 10A-D: Reaction of NCI-H460 cells to activation of p38 MAPK and SAPK/JNK. (FIG. 10A) BrdU labeling was used to determine the amount of NCI-H460 cells in the S phase of the cell cycle. Cells were pulse labeled with 100 μM BrdU for 15 minutes (0 and 4 h) or 10 μM for 1 h (24 h). Dot blots show DNA content versus BrdU signal. The number of S phase cells decreases within a few hours after treatment of cells with siRNA si5. (FIG. 10B) Flow cytometry dot blots, showing the cellular DNA content versus the amount of cleaved Caspase 3. Within 24 h after exposure to siRNA si5 cells in G1 as well as in the S phase of the cell cycle show Caspase 3 activation. (FIG. 10C) Activation of Caspase 3 leads to PARP cleavage and to (FIG. 10D) nuclear chromatin condensation visible in Hoechst 33342 stained NCI-H460 cells, typical of apoptosis.
To test this hypothesis, H460 cells were pulse labeled with BrdU for 15 min at various time points after treatment with siRNA si5 and analyzed by flow cytometry immediately afterwards. […] In particular, it can be seen that the fraction of cells in the S phase of the cell cycle drops from 48% in untreated cells to 27% 4 h after incubating the cells with 20 nM siRNA si5.

H460 xenograft tumors = experiment: Immunohistochemistry for cleaved Caspase-3 in H460 xenograft tumors; assay type: in vivo, mice; conditions: 16 hours after intratumoral injection
Experimental: To gain an insight into the mechanisms of dsRNA si5-induced growth delay in H460 xenograft tumors shown in FIG. 26, the tumors were analyzed by immunohistochemical staining for apoptotic activation of Caspase-3. Two tumors with a volume of about 500 μl were injected with a liposomal preparation of active and control dsRNA as described above. Sixteen hours after injection mice were sacrificed and the tumors were fixed in formaldehyde. After paraffin embedding 5 μm sections were cut from the central region of the tumor. The sections were stained immunohistochemically using a primary antibody against cleaved Caspase-3. The primary antibody was detected using a biotinylated secondary antibody and an peroxidase ABC-Kit (Vector Laboratories). Diaminobenzidine (DAB) was used as a substrate for immunohistochemical detection and the slides were counterstained with Hematoxylin.

TAK1-D = target: T1, TAK1-D (Homo sapiens, UniProt O43318); experiment: Subcellular localization of TAK1-D in H460 cells (fractionation, immunofluorescence); assay type: cell-based; design: endogenous in cells; host or cells: NCI-H460
T1 sequence (O43318 1-491 isoform O43318-4): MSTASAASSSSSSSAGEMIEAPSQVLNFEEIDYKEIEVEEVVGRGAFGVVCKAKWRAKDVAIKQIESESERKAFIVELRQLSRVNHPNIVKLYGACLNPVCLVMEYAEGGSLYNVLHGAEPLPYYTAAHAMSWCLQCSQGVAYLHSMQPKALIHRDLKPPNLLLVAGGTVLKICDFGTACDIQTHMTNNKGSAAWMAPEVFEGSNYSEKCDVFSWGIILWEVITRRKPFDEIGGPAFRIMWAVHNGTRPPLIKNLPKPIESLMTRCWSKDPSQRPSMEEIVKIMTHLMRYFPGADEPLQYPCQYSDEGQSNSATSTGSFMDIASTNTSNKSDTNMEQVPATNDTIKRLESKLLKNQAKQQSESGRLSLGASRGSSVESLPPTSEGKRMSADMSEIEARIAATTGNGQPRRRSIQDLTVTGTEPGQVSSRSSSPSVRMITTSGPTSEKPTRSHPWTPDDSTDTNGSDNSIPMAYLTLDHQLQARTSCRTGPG
Experimental: Subcellular fractionation. About […] H460 cells growing in a 10 cm dish were transfected with 20 nM dsRNA si5 or si6. […] A crude nuclear pellet (P.7) was obtained by centrifugation at 700 g and 4° C. for 5 minutes. The supernatant was centrifuged at 10,000 g and 4° C. for 30 minutes producing the P10 pellet and finally separated by ultracentrifugation (Sorvall 90SE ultracentrifuge and Sorvall AH-629 rotor) at 150,000 g and 4° C. for 1 hour into pellet (P150) and supernatant (S150). Proteins from the S150 fraction were concentrated by precipitation with 10% trichloroacetic acid (TCA). All pellets were dissolved in SDS sample buffer.
Immunofluorescence. H460 cells stably expressing TAK1-D fused on its c-terminus to a FLAG tag were generated as described above for the K36W mutant. Cells were transfected with 20 nM si5 or si6 and fixed in 4% formaldehyde 6 h later. After 15 min of fixation at room temperature cells were washed 3 times in PBS and permeabilized in methanol at −20° C. for 10 min. After one wash in PBS slides were blocked for 1 hour at room temperature in PBS containing 1% BSA. […] After three 5 min washes in PBS cells were visualized by fluorescence microscopy. […]

si5: 21-mer siRNA against TLK1 mRNA: GGCUUUUGACCUUUAUGAAtt (SEQ ID NO: 2) / ttCCGAAAACUGGAAAUACUU (SEQ ID NO: 3) (sense GGCUUUUGACCUUUAUGAATT; antisense TTCCGAAAACUGGAAAUACUU; chemistry not given here; one strand is listed 3' to 5')
fraction of cells in the S phase of the cell cycle (H460 cells; H460, 4 h after 20 nM, untreated cells 48%): 27% | DNA synthesis (H460 cells; H460, 24 h after treatment): ceased almost completely | cell cycle arrest (H460 cells; NCI-H460, first 24 h): arrest of NCI-H460 cells in the G1, S, and G2 phase of the cell cycle | apoptotic activation of Caspase-3 (DAB staining) (H460 xenograft tumors): visible in many cells | colocalization of FLAG-TAK1-D and ribosomes (S6) (TAK1-D; H460, 20 nM, 6 h, immunofluorescence): increased colocalization | amount of TAK1-D in the 150,000 g pellet (TAK1-D; H460, 4 h, compared to control si6): increased

Source: patent US8163709B2, “TAK1-D mediated induction of cell death in human cancer cells by specific sequence short double-stranded RNAS” (Board of Regents of the University of Texas System, priority 2008, dated 2012)
